Patent US20100256048A1, “POLYPEPTIDE COMPOUND” (Astellas Pharma Inc., priority 2007, published 2010)

Assays:
A. fumigatus 20030 = experiment: Mouse respiratory infection model; assay type: in vivo, Aspergillus fumigatus; conditions: male ICR mice given cyclophosphamide, compound intravenously, lives and deaths observed over 10 days
Protocol: Effect to Mouse Respiratory Infection Model
4-week old male ICR mice were used so as to be eight mice in a group. 200 mg/kg of cyclophosphamide is intraperitoneally administered into mice at 4 days before infection and 1 day after infection. Conidium liquid (0.05 mL: approximately 2.2×10^6) of A. fumigatus 20030 suspended in physiological saline was inoculated from respiratory passages of mice to cause respiratory infection. The compound was administered intravenously for 2 hours to 4 days after the infection. The lives and deaths of the mice were observed over a 10 day period starting from the next day.

[1] = system: A. fumigatus (Aspergillus fumigatus); experiment: MIC in human serum by microdilution, A. fumigatus; assay type: cell-based; conditions: human serum buffered with 20 mM HEPES pH 7.3; 37° C., 24 hours, 5% CO2; geometric mean of three clinical cell lines; growth sufficiently inhibited versus growth control
Protocol: (§1) Measurement of Susceptibility to C. albicans (Candida albicans) and A. fumigatus (Aspergillus fumigatus) By the microdilution method where human serum buffered with 20 mM-HEPES buffer (pH 7.3) was used as a test medium, MIC (minimum inhibitory concentration) in human serum was determined. The inoculum suspension of 10^6 cells/mL was prepared by a hemocytometric procedure to obtain an inoculum size of approximately 5×10^3 to 2×10^4cells/mL. Microplates were incubated at 37° C. for 24 hours under 5% CO2 atmosphere. […] The values were shown as geometric mean of MIC with reference to three of clinical cell lines.

[2] = system: C. albicans (Candida albicans); experiment: MIC in human serum by microdilution, C. albicans; assay type: cell-based; conditions: human serum buffered with 20 mM HEPES pH 7.3; 37° C., 24 hours, 5% CO2; geometric mean of three clinical cell lines; growth completely inhibited
Protocol: as §1

SMILES	Infection experiments ED50 A. fumigatus (A. fumigatus 20030) [mg/kg]	MIC (mean of three cell lines) A. fumigatus [1] [µg/mL]	MIC (mean of three cell lines) C. albicans [2] [µg/mL]
COc1cc(C[C@@H](O)[C@@H]2NC(=O)[C@@H]3C[C@@H](O)CN3C(=O)[C@H]([C@@H](C)O)NC(=O)[C@@H](NC[C@H]3CC[C@H](c4nnc(-c5ccc(N6CCC(OC)(C7CCCCC7)CC6)cc5)s4)CC3)C[C@@H](O)CNC(=O)[C@@H]3[C@@H](O)[C@@H](C)CN3C(=O)[C@H]([C@H](O)CCN)NC2=O)ccc1O [Ex 1]	<0.3		
COc1cc(C[C@@H](O)[C@@H]2NC(=O)[C@@H]3C[C@@H](O)CN3C(=O)[C@H]([C@@H](C)O)NC(=O)[C@@H](NC[C@H]3CC[C@H](c4nnc(-c5ccc(N6CCC(OC)(C7CCCCC7)CC6)cc5)s4)CC3)C[C@@H](O)CNC(=O)[C@@H]3[C@@H](O)[C@@H](C)CN3C(=O)[C@H]([C@H](O)CCNC(CO)CO)NC2=O)ccc1O [Ex 6]	0.44		
C[C@@H](O)[C@@H]1NC(=O)[C@@H](NCC2CCN(c3nnc(-c4ccc(-c5cnc(N6CCC(OC7CCCCC7)CC6)nc5)cc4)s3)CC2)C[C@@H](O)CNC(=O)[C@@H]2[C@@H](O)[C@@H](C)CN2C(=O)[C@H]([C@H](O)CC(=O)NCCN)NC(=O)[C@H]([C@H](O)Cc2ccc(O)c(OS(=O)(=O)O)c2)NC(=O)[C@@H]2C[C@@H](O)CN2C1=O [Ex 30]		0.32	0.4
C[C@@H](O)[C@@H]1NC(=O)[C@@H](NC[C@H]2CC[C@H](c3nnc(-c4ccc(N5CCC(OC6CCCCC6)CC5)cc4)s3)CC2)C[C@@H](O)CNC(=O)[C@@H]2[C@@H](O)[C@@H](C)CN2C(=O)[C@H]([C@H](O)CCNC(CO)CO)NC(=O)[C@H]([C@H](O)Cc2ccc(O)c(OS(=O)(=O)O)c2)NC(=O)[C@@H]2C[C@@H](O)CN2C1=O [Ex 33]	0.39		
